According to patent US9102669B2, “Substituted piperidinyl-pyridazinyl derivatives useful as SCD 1 inhibitors” (Janssen Pharmaceutica NV, priority 2011, dated 2015):
Several values for one entry are separate records, joined by “and”; a condition that tells them apart may be missing. Identical values can stand only once.

Legend:
[1] = target: SCD1 (Rattus norvegicus (Rat), UniProt P07308); test: SCD1 enzymatic assay in rat liver microsomes (RLM); type: biochemical; settings: rat liver microsomes; for inhibition at 1 µM / % Inh.@ 1 μM: 1 μM test compound; for inhibition at 1 µM: read-out: % Inh.@ 1 μM
Experimental: Step 1: Preparation of Rat Liver Microsome (RLM):
Sprague Dawley rats from Charles River (200-225 g) underwent 2-cycle of fast-re-feeding (24-hour fast followed by 24-hour feeding with fat-free high carbohydrate diet, Reseach Diet, D00042802). The livers were removed and homogenized 1:4 (w/v) with pre-chilled, homogenizing buffer (10 mM Tris-HCl, 0.25 M sucrose, 1 mM EDTA, pH 7.4, supplemented with protease inhibitor cocktail). The homogenate was spun at 12,000×g for 15 min at 4° C. The supernatant was then re-centrifuged at 100,000×g for 60 min at 4° C. The pellet was re-suspended in 2 ml pre-chilled […] potassium phosphate buffer, pH 7.2, 10 mM EDTA at a concentration of 20 mg/ml. The resulting rat liver microsome (RLM) preparation was stored at −80° C.
Step 2: SCD1 Enzymatic Assay in RLM:
The SCD1 enzymatic assay was done in a volume of 50 μL using 10 μg of RLM (prepared as described above) in a 96-well polypropylene plate (enzyme reaction buffer contains 0.1 M K-Phosphate Buffer, 10 mM ATP, 6 mM MgCl2. 1 mM CoA, 1 mM β-NADH, 1.6 mM L-glutathione, 20 μM Stearoyl-CoA). Stearoyl-[9,10-^3H]-CoA (ARC-0390, 1 mCi/mL, 60 Ci/mmol,) was added at a final concentration of 2 μCi/mL. Test compound was then added to the reaction mixture at the selected concentration. After incubation at room temperature for 2 hours, 5 μL 1 N HCl was added to stop the reaction, followed by addition of 25 μL of 10% charcoal. The reaction mixture was then transferred to 96-well Multiscreen plate (Millipore, Cat#MSFCN6B50). […] The measured cpm values were fitted with Sigmoidal dose-response curve fit with Graphpad Prism.

[2] = target: SCD1 (Homo sapiens (Human), UniProt O00767); test: SCD1 13C-palmitic acid assay in A431 cells; type: cell-based; settings: read-out: A431 cells 13C-PA IC50
Experimental: Human epithelial carcinoma A431 cells were seeded at 100,000 cells/well in complete growth medium (DMEM, Cellgro#10-013-CM, 4.5 g/L glucose, 10% FBS) in the presence of 0.05 mg/mL human insulin (Hannas Pharmaceutical Supply Co Inc, Humanlin 100 U/ml, 4 mg/ml) in 96-well tissue culture plate. 24 hr later, the cells were washed extensively with Assay Buffer (DMEM, Cellgro#10-013-CM, 4.5 g/L glucose, supplemented with 0.05 mg/mL Human Insulin and 0.1% Fatty Acid Free BSA). […] The cells were then returned to the tissue culture incubator (37° C. and 5% CO2) for 4 hrs. At the end of incubation, the cells were washed three times with 200 μL/well Hanks buffer (HBSS) and then stored at −20° C. until extraction.
For fatty acid extraction, after thawing out the plates, 40 μL of 1N KOH (containing 5 μM of internal standard 7,7,8,8-D4 palmitate) was added to each well and cell plates were incubated at 37° C. for 30 minutes. […] Acetonitrile (100 μL) was then added to extract fatty acids, followed by centrifugation at 3000 rpm for 10 minutes. 75 μL of extract was then transferred to a new glass vial in a 96-well cluster plate. 5 μL was injected for LC/MS analysis for detection of ^13C-palmitic acid and ^13C-palmitoleic acid. Formation of product ^13C-palmitoleic acid was determined as an index of SCD1 activity.
LC/MS analysis was performed as following. An Agilent 1100 Liquid Chromatographic System (Palo Alto, Calif.) consisting of a binary pump, a degasser and an autosampler was used. Separation of free fatty acids was performed on a Zorbax SB-C8 column (2.1×50 mm, particle size=3.5 μm). An isocratic elution was carried out with 10 mM triethylamine acetate in water: acetonitrile (3:7) at a flow rate of 0.3 mL/min. The column temperature was set at 30° C. and the sample injection volume was 5 μL. The LC run cycle was 4 min. A Micromass triple-quadrupole Quattro Micro mass […] (Waters, Beverly, Mass.) was interfaced with the LC system through a Z-spray electrospray ion source and was operated in the negative ion mode. Nitrogen was used as nebulizing gas, desolvation gas and cone curtain gas and argon was chosen as collision gas. The triple quadrupole MS source parameters were set as follows: capillary voltage, 3200V; cone voltage, 25V; exctractor 2V; source temperature, 120° C.; desolvation temperature, 300° C.; cone gas flow, 50 L/h; and desolvation gas flow, 700 L/h. […] MassLynx software version 4.0 was used for system control and data processing. The signal of U-^13C-palmitoleic acid was normalized to an internal standard.

Chain of SCD1 (Homo sapiens (Human), UniProt O00767) (O00767 whole entry): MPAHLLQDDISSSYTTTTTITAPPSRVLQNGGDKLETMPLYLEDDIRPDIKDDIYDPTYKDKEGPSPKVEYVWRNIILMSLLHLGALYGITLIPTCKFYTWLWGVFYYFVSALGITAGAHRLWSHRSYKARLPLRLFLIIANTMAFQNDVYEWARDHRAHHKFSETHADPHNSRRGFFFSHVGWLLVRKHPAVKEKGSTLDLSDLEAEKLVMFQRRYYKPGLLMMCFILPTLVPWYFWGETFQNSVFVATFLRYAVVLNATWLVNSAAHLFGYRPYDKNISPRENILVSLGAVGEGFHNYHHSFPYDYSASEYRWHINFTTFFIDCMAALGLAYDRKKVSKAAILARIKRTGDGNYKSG
Chain of SCD1 (Rattus norvegicus (Rat), UniProt P07308) (P07308 whole entry): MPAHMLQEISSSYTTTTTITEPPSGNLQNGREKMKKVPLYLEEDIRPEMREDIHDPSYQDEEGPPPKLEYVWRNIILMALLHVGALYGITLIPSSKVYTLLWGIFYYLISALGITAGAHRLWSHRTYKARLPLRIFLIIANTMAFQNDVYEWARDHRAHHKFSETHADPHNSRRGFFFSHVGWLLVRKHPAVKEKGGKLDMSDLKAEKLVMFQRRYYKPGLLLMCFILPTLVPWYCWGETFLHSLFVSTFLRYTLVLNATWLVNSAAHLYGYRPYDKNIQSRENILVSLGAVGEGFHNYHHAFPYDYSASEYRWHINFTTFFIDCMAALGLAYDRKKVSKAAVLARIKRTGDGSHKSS

`OCc1cn(-c2ccc(N3CCC(N4CCc5ccc(F)cc54)CC3)nn2)cn1` [Compound #15] gave an inhibition at 1 µM [1] of 101%, an IC50 [1] of 11 nM and an IC50 [2] of 3 nM.
In the case of `Cc1cnn(-c2ccc(N3CCC(N4CCc5ccc(F)cc54)CC3)nn2)c1` [Compound #16, 6-fluoro-1-(1-(6-(4-methyl-1H-pyrazol-1-yl)pyridazin-3-yl)piperidin-4-yl)indoline], the inhibition at 1 µM [1] is reported as 100%, the IC50 [1] is reported as 21 nM and the IC50 [2] is reported as 23 nM.
In the case of `CCn1cc(-c2ccc(N3CCC(N4CCc5ccc(F)cc54)CC3)nn2)cn1` [Compound #21, 1-(1-(6-(1-ethyl-1H-pyrazol-4-yl)pyridazin-3-yl)piperidin-4-yl)-6-fluoroindoline], the inhibition at 1 µM [1] is reported as 94%, the IC50 [1] is reported as 17 nM and the IC50 [2] is reported as 40 nM and 19 nM.
Work on `Cc1csc(-c2ccc(N3CCC(N4CCc5ccc(F)cc54)CC3)nn2)n1` [Compound #29, 2-(6-(4-(6-fluoroindolin-1-yl)piperidin-1-yl)pyridazin-3-yl)-4-methylthiazole] yielded an inhibition at 1 µM [1] of 97%, an IC50 [1] of 7 nM and an IC50 [2] of 2 nM.
`Cc1ccc(-c2ccc(N3CCC(N4CCc5ccc(F)cc54)CC3)nn2)cn1` [Compound #30, 6-fluoro-1-(1-(6-(6-methylpyridin-3-yl)pyridazin-3-yl)piperidin-4-yl)indoline] was tested, and the “% Inh.@ 1 μM” value [1] was 99%, the inhibition at 1 µM [1] was 95% and the IC50 [1] was 6 nM and 19 nM. For the same molecule, the IC50 [2] was 2 nM and 3 nM.
`Cc1cnc(-c2ccc(N3CCC(N4CCc5ccc(F)cc54)CC3)nn2)s1` [Compound #31, 2-(6-(4-(6-fluoroindolin-1-yl)piperidin-1-yl)pyridazin-3-yl)-5-methylthiazole] was tested, and the inhibition at 1 µM [1] was 97%, the IC50 [1] was 31 nM and the IC50 [2] was 4 nM and 19 nM.
For `Cc1ccc(-c2ccc(N3CCC(N4CCc5ccc(F)cc54)CC3)nn2)cc1` [Compound #36, 6-fluoro-1-(1-(6-(p-tolyl)pyridazin-3-yl)piperidin-4-yl)indoline], the inhibition at 1 µM [1] was 92%, the IC50 [1] was 79 nM and the IC50 [2] was 3 nM and 18 nM.
Molecule `COc1ccc(-c2ccc(N3CCC(N4CCc5ccc(F)cc54)CC3)nn2)cn1` [Compound #37, 6-fluoro-1-(1-(6-(6-methoxypyridin-3-yl)pyridazin-3-yl)piperidin-4-yl)indoline] has an inhibition at 1 µM [1] of 98%, an IC50 [1] of 12 nM and an IC50 [2] of 4 nM.
`CNC(=O)c1ccc(-c2ccc(N3CCC(N4CCc5ccc(F)cc54)CC3)nn2)cn1` [Compound #42, 5-(6-(4-(6-fluoroindolin-1-yl)piperidin-1-yl)pyridazin-3-yl)-N-methylpicolinamide] was tested, and the inhibition at 1 µM [1] was 71%, the IC50 [1] was 35 nM and the IC50 [2] was 6 nM.
In the case of `OCCc1cnn(-c2ccc(N3CCC(N4CCc5ccc(F)cc54)CC3)nn2)c1` [Compound #43, 2-(1-(6-(4-(6-fluoroindolin-1-yl)piperidin-1-yl)pyridazin-3-yl)-1H-pyrazol-4-yl)ethanol], the inhibition at 1 µM [1] is reported as 90%, the IC50 [1] is reported as 20 nM and the IC50 [2] is reported as 11 nM.
`CN(C)c1ccc(-c2ccc(N3CCC(N4CCc5ccc(F)cc54)CC3)nn2)cn1` [Compound #44, 5-(6-(4-(6-fluoroindolin-1-yl)piperidin-1-yl)pyridazin-3-yl)-N,N-dimethylpyridin-2-amine] was tested, and the “% Inh.@ 1 μM” value [1] was 97%, the inhibition at 1 µM [1] was 92% and the IC50 [1] was 20 nM and 14 nM. The IC50 [2] was 32 nM and 28 nM.
`Fc1ccc(-c2ccc(N3CCC(N4CCc5ccc(F)cc54)CC3)nn2)cc1` [Compound #53, 6-fluoro-1-(1-(6-(4-fluorophenyl)pyridazin-3-yl)piperidin-4-yl)indoline] showed an inhibition at 1 µM [1] of 59% and an IC50 [1] of 777 nM.
`Cn1cc(-c2ccc(N3CCC(n4ccc5ccc(F)cc54)CC3)nn2)cn1` [Compound #63, 6-fluoro-1-(1-(6-(1-methyl-1H-pyrazol-4-yl)pyridazin-3-yl)piperidin-4-yl)-1H-indole] was tested, and the inhibition at 1 µM [1] was 99%.
For `Cn1cc(-c2ccc(N3CCC(N4CCc5c(F)cccc54)CC3)nn2)cn1` [Compound #66, 4-fluoro-1-(1-(6-(1-methyl-1H-pyrazol-4-yl)pyridazin-3-yl)piperidin-4-yl)indoline], the inhibition at 1 µM [1] was 57% and the IC50 [1] was 678 nM.
`CC(=O)NNC(=O)c1ccc(N2CCC(c3noc4ccc(F)cc34)CC2)nn1` [Compound I2, N′-acetyl-6-(4-(5-fluorobenzo[d]isoxazol-3-yl)piperidin-1-yl)pyridazine-3-carbohydrazide] gave an inhibition at 1 µM [1] of 27%.
For `Cc1ccc(-c2ccc(N3CCC(c4noc5ccc(F)cc45)CC3)nn2)cc1` [compound 32, 5-fluoro-3-(1-(6-(p-tolyl)pyridazin-3-yl)piperidin-4-yl)benzo[d]isoxazole], the inhibition at 1 µM [1] was 45% and the IC50 [1] was > 1000 nM.
For `Cn1cc(-c2ccc(N3CCC(n4c(C(F)(F)F)nc5ccccc54)CC3)nn2)cn1` [compound 41, 1-(1-(6-(1-methyl-1H-pyrazol-4-yl)pyridazin-3-yl)piperidin-4-yl)-2-(trifiuoromethyl)-1H-benzo[d]imidazole], the inhibition at 1 µM [1] was 38% and the IC50 [1] was > 1000 nM.
`Cn1cc(-c2ccc(N3CCC(n4nnc5ccccc54)CC3)nn2)cn1` [compound 48, 1-(1-(6-(1-methyl-1H-pyrazol-4-yl)pyridazin-3-yl)piperidin-4-yl)-1H-benzo[d][1,2,3]triazoie] showed an inhibition at 1 µM [1] of 60% and an IC50 [1] of 939 nM.
In the case of `CC(C)(C)OC(=O)c1ccc(-c2ccc(N3CCC(N4CCc5ccc(F)cc54)CC3)nn2)cc1` [compound 55, tert-butyl 4-(6-(4-(6-fluoroindolin-1-yl)piperidin-1-yl)pyridazin-3-yl)benzoate], the inhibition at 1 µM [1] is reported as 8% and the IC50 [1] is reported as > 1000 nM.
In the case of `NC(=O)c1ccc(-c2ccc(N3CCC(N4CCc5ccc(F)cc54)CC3)nn2)cc1` [compound 56, 4-(6-(4-(6-fluoroindolin-1-yl)piperidin-1-yl)pyridazin-3-yl)benzamide], the inhibition at 1 µM [1] is reported as 28% and the IC50 [1] is reported as > 1000 nM.
In the case of `Cn1cc(-c2ccc(N3CCC(N4CCc5c(Cl)cccc54)CC3)nn2)cn1` [compound 67, 4-chloro-1-(1-(6-(1-methyl-1H-pyrazol-4-yl)pyridazin-3-yl)piperidin-4-yl)indoline], the inhibition at 1 µM [1] is reported as 32% and the IC50 [1] is reported as > 1000 nM.
Molecule `Cn1cc(-c2ccc(N3CCC(N4CCc5c(Cl)cc(Cl)cc54)CC3)nn2)cn1` [compound 68, 4,6-dichloro-1-(1-(6-(1-methyl-1H-pyrazol-4-yl)pyridazin-3-yl)piperidin-4-yl)indoline] has an inhibition at 1 µM [1] of 34%.
In the case of `Fc1ccc2onc(C3CCN(c4ccc(-n5cccn5)nn4)CC3)c2c1` [compound 87, 3-(1-(6-(1H-pyrazol-1-yl)pyridazin-3-yl)piperidin-4-yl)-5-fluorobenzo[d]isoxazole], the inhibition at 1 µM [1] is reported as 45%.
Molecule `Cc1cn(-c2ccc(N3CCC(N4CCCc5ccccc54)CC3)nn2)cn1` [compound 90, 1-(1-(6-(4-methyl-1H-imidazol-1-yl)pyridazin-3-yl)piperidin-4-yl)-1,2,3,4-tetrahydroquinoline] has an inhibition at 1 µM [1] of 29%.
With `Cc1nccn1-c1ccc(N2CCC(c3noc4ccc(F)cc34)CC2)nn1` [compound 93, 5-fluoro-3-(1-(6-(2-methyl-1H-imidazol-1-yl)pyridazin-3-yl)piperidin-4-yl)benzo[d]isoxazole] the inhibition at 1 µM [1] was 41%.
